Legend:
Experiment in all cases: In vitro antiproliferation assay, General Procedure 2 (CCK-8)
OCI-M1 cell line = type: cell-based; details: Acute myeloid leukemia
From the text: (§1) Cell Culture: Cell lines were obtained from the American Type Culture Collection (ATCC, Manassas, VA, USA) or Deutsche Sammlung von Mikroorganismen und Zellkulturen (DSMZ, Braunschweig, Germany) and maintained according to the culturing conditions specified by ATCC or DSMZ. Cells were thawed out and maintained in culture for at least two passages before proceeding with experimental conditions.
(§2) Cytotoxicity assays: For adherent cell lines, the cells were dissociated with enzyme-free PBS-based cell dissociation buffer (Gibco, USA) and plated on tissue culture treated 96-well flat bottom polystyrene plates (Costar, Corning, USA) at appropriate cell densities depending on doubling time of the cells. 18 hours after plating, cells were treated with test articles at appropriate concentrations starting at 100 nM and diluted in 4-fold serial dilutions. For suspension cell lines, the cells were seeded on the same day of treatment and cells were treated as described above. Adherent cells were treated for 5 days and suspension cells were treated for 3 days. Cell proliferation was assessed using the Cell Counting Kit-8 (CCK-8, Dojindo Laboratories, Japan) and measurements were obtained using the Promega GloMax Discover plate reader (Promega, USA). Data were analyzed using GraphPad Prism software (GraphPad Software, San Diego, CA). All data points were obtained from technical triplicates and the experiments were validated using three biological replicates.

OCI-M2 cell line = type: cell-based; details: Acute myelocytic leukemia
From the text: as §1, §2

THLE2 cell line = type: cell-based; details: THLE-2; Human liver normal
From the text: as §1, §2

JHUEM3 cell line = type: cell-based; details: Endometrial
From the text: as §1, §2

RH30 cell line = type: cell-based; details: Rhabdomyosarcoma
From the text: as §1, §2

PL-21 cell line = type: cell-based; details: Acute myeloid leukemia
From the text: as §1, §2

Molp8 cell line = type: cell-based; details: Homo sapiens, MOLP-8; MM
From the text: as §1, §2

LOVO cell line = type: cell-based; details: Homo sapiens, Colon
From the text: as §1, §2

OCI-AML4 cell line = type: cell-based; details: Acute myeloid leukemia; read-out: IC50, OCI-AML4
From the text: as §1, §2

SU-DHL-8 cell line = type: cell-based; details: Homo sapiens, NHL
From the text: as §1, §2

SK-BR-3 cell line = type: cell-based; details: Homo sapiens, Breast, read-out: IC50, SKBR3
From the text: as §1, §2

RPMI7951 cell line = type: cell-based; details: Homo sapiens, RPMI-7951; Skin
From the text: as §1, §2

BT-474 cell line = type: cell-based; details: Homo sapiens, Breast, read-out: IC50, BT474
From the text: as §1, §2

HL-60 cell line = type: cell-based; details: Homo sapiens, HL-60; AML; read-out: IC50, HL-60
From the text: as §1, §2

NB-4 cell line = type: cell-based; details: Homo sapiens, Acute promyelocytic leukemia
From the text: as §1, §2

U251MG cell line = type: cell-based; details: Homo sapiens, U-251; Brain
From the text: as §1, §2

SNU182 cell line = type: cell-based; details: Homo sapiens, SNU-182; Liver
From the text: as §1, §2

[1] = tested on: HS-SY-II synovial sarcoma cell line; type: cell-based
From the text: as §1, §2

OCI-AML2 cell line = type: cell-based; details: Homo sapiens, OCI-AML2; Acute myeloid leukemia; read-out: IC50, OCI-AML2
From the text: as §1, §2

THP-1 cell line = type: cell-based; details: Homo sapiens, AML
From the text: as §1, §2

KE39 cell line = type: cell-based; details: Gastric
From the text: as §1, §2

SKM-1 cell line = type: cell-based; details: Homo sapiens, SKM-1; Acute myeloid leukemia; read-out: IC50, SKM-1
From the text: as §1, §2

[2] = tested on: ASKA synovial sarcoma cell line; type: cell-based
From the text: as §1, §2

SKOV3 cell line = type: cell-based; details: Homo sapiens, SK-OV-3; Ovarian
From the text: as §1, §2

Daudi cell line = type: cell-based; details: Homo sapiens, NHL
From the text: as §1, §2

AGS cell line = type: cell-based; details: Homo sapiens, Gastric
From the text: as §1, §2

CMK cell line = type: cell-based; details: Homo sapiens, Acute megakaryocytic leukemia
From the text: as §1, §2

RH41 cell line = type: cell-based; details: Homo sapiens, Rhabdomyosarcoma
From the text: as §1, §2

MOLM13 cell line = type: cell-based; details: Homo sapiens, MOLM-13; AML; read-out: IC50, MOLM13
From the text: as §1, §2

MV4-11 cell line = type: cell-based; details: Homo sapiens, MV4-11; Biphenotypic B myelomonocytic leukemia; read-out: IC50, MV4-11
From the text: as §1, §2

ML-2 cell line = type: cell-based; details: Homo sapiens, ML-2; Acute myelomonocytic leukemia; read-out: IC50, ML-2
From the text: as §1, §2

EOL-1 cell line = type: cell-based, human; details: Homo sapiens, EOL1; Acute myeloid leukemia; read-out: IC50, EOL-1
From the text: as §1, §2

CNCCOCCc1ccc(NC(=O)NCc2ccc3c(c2)CN(C2CCC(=O)NC2=O)C3=O)cc1Cl (centres unmarked) [Compound P1, 1-(3-chloro-4-[2-[2-(methylamino)ethoxy]ethyl]phenyl)-3-[[2-(2,6-dioxopiperidin-3-yl)-1-oxo-3H-isoindol-5-yl]methyl]urea]
IC50 (OCI-M1 cell line): > 1000 nM
IC50 (OCI-M2 cell line): 650 nM
IC50 (THLE2 cell line): > 1000 nM
IC50 (JHUEM3 cell line): > 1000 nM
IC50 (RH30 cell line): 174 nM
IC50 (PL-21 cell line): 7.55 nM
IC50 (Molp8 cell line): 23.7 nM
IC50 (LOVO cell line): > 1000 nM
IC50 (OCI-AML4 cell line): 22.4 nM
IC50 (SU-DHL-8 cell line): 102 nM
IC50 (SK-BR-3 cell line): 100 nM
IC50 (RPMI7951 cell line): 97.1 nM
IC50 (BT-474 cell line): 13 nM
IC50 (HL-60 cell line): 12.3 nM
IC50 (NB-4 cell line): 8.63 nM
IC50 (U251MG cell line): > 1000 nM
IC50 (SNU182 cell line): 12.7 nM
IC50 [1]: 11.7 nM
IC50 (OCI-AML2 cell line): 95.9 nM
IC50 (THP-1 cell line): 350 nM
IC50 (KE39 cell line): > 1000 nM
IC50 (SKM-1 cell line): 3.21 nM
IC50 [2]: 71.2 nM
IC50 (SKOV3 cell line): 114 nM
IC50 (Daudi cell line): 47.4 nM
IC50 (AGS cell line): > 1000 nM
IC50 (CMK cell line): 408 nM
IC50 (RH41 cell line): 1210 nM
IC50 (MOLM13 cell line): 24.8 nM
IC50 (MV4-11 cell line): 2.72 nM
IC50 (ML-2 cell line): 1.86 nM
IC50 (EOL-1 cell line): 3.1 nM

Reference: patent US20230338564A1, “NEODEGRADER CONJUGATES” (Orum Therapeutics, Inc., priority 2020, published 2023)
